Results: patent US20200407398A1, “Short Proline-Rich Lipopeptide Potentiates Minocycline and Rifampicin Against Multidrug-and Extensively Drug-Resistant Pseudomonas Aeruginosa” (priority 2018, published 2020)
Square brackets hold non-standard residues; d marks the D form. Peptide text beside a SMILES is read from it. * marks the point of attachment. Lauroyl = CCCCCCCCCCCC(=O)*

How the values were obtained:
[1] = tested on: P. aeruginosa PAO1 (wild-type); assay: microbe, parasite or virus in culture
Method: We evaluated the activity of SPRLPs in combination with fifteen clinically-used antibiotics against P. aeruginosa. Antibiotics tested included fluoroquinolones (moxifloxacin, ciprofloxacin and levofloxacin), aminoglycosides (gentamicin, tobramycin and amikacin), cephalosporins (ceftazidime and cefotaxime), carbapenems (meropenem and doripenem), aztreonam, rifampicin, minocycline, colistin and fosfomycin. The SPRLPs were screened initially at a fixed concentration of 8 μg/mL (5 μM) in combination with antibiotics against wild-type P. aeruginosa PAO1. We assessed potentiation by at least a four-fold absolute MIC reduction of the antibiotic, after which synergism was further validated by a conventional checkerboard assay. A fractional inhibitory concentration (FIC) index of ≤0.5, 0.5<x≤4 or >4 was interpreted as synergistic, indifferent or antagonistic interaction, respectively (31). FIC index was obtained by adding the FIC values of the antibiotic and the SPRLP adjuvant. FIC of antibiotics was calculated by dividing the MIC of the antibiotic in the presence of the adjuvant by the MIC of the antibiotic alone. Similarly, the FIC of adjuvant was calculated via dividing the MIC of the adjuvant in the presence of the antibiotic by the MIC of the adjuvant alone.
Microbroth dilution susceptibility test following the Clinical and Laboratory Standards Institute (CLSI) guidelines (32) was performed to assess the in vitro antibacterial activity of SPRLPs. Overnight grown bacterial cultures were diluted in saline to achieve a 0.5 McFarland turbidity, followed by 1:50 dilution in Mueller-Hinton broth (MHB) for inoculation to a final concentration of 5×10^5 colony forming units/mL. The assay was done on a 96-well plate to which the agents of interest were 2-fold serially diluted in MHB and incubated with equal volumes of inoculum at 37° C. for 18 hours. MIC was determined as the lowest concentration to inhibit visible bacterial growth in form of turbidity, which was confirmed using EMax Plus microplate reader (Molecular Devices, USA) at a wavelength of 590 nm. The well containing MHB broth with or without bacterial cells was used as positive or negative control, respectively.
The assay was performed on a 96-well plate, to which the agents of interest was 2-fold serially diluted in working MHB. Prior to serial dilution, SPRLP was added to the working MHB media so that a fixed final concentration of 8 μg/mL (5 μM) SPRLP per well was achieved. To ensure that the assay was working, the MIC determination test of the studied antibiotic (without SPRLP) was included on the same plate. Similar MIC results between the assay comparator and an independent MIC determination test (on a different plate) ensured validity of the synergy test. Overnight grown bacterial cultures were diluted in saline to 0.5 McFarland turbidity, followed by 1:50 dilution in MHB (without SPRLP) and inoculation into each well to a final concentration of approximately 5×10^5 colony forming units/mL. Wells containing only MHB (without SPRLP) with or without bacterial cells were used as positive or negative control, respectively. The plate was then incubated at 37° C. for 18 hours and examined for visible turbidity, to which was confirmed using EMax Plus microplate reader (Molecular Devices, USA) at a wavelength of 590 nm. A 4-fold or more MIC reduction of antibiotic in the presence of 8 μg/mL (5 μM) SPRLP denoted a positive synergy result and was further validated by a checkerboard assay.
The assay was done on a 96-well plate as previously described (40, 41). The agent of interest was 2-fold serially diluted along the x-axis, while the adjuvant was 2-fold serially diluted along the y-axis to create a matrix in which each well consist of a combination of both at different concentrations.

[2] = tested on: wild-type and MDR/XDR P. aeruginosa clinical isolates; details: for interaction with minocycline (in words) / interaction with rifampicin (in words): checkerboard assay, P. aeruginosa; for MIC (lipopeptide alone): wild-type and clinical isolates of P. aeruginosa
[3] = tested on: P. aeruginosa CAN-ICU 62308 (gentamicin-resistant); type: cell-based
Procedure, shortened: (§1)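 MICs were determined by CLSI broth microdilution in Mueller-Hinton broth, using 2-fold serial dilutions and an inoculum of 5×10^5 CFU/mL. Plates were incubated 18 hours at 37° C. The MIC was the lowest concentration preventing visible turbidity, confirmed by absorbance at 590 nm.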

[4] = tested on: methicillin-resistant S. epidermidis CAN-ICU 61589 (ceftazidime-resistant); type: cell-based; details: methicillin-resistant CAN-ICU 61589 (ceftazidime-resistant)
Procedure, shortened: as §1

[5] = tested on: E. faecium ATCC 27270; type: cell-based
Procedure, shortened: as §1

[6] = tested on: E. coli CANWARD-2011 97615 (gentamicin-, tobramycin-, ciprofloxacin-resistant) aac(3′)iia; type: cell-based
Procedure, shortened: as §1

[7] = tested on: P. aeruginosa ATCC 27853; type: cell-based
Procedure, shortened: as §1

[8] = tested on: E. faecalis ATCC 29212; type: cell-based
Procedure, shortened: as §1

[9] = tested on: E. coli CAN-ICU 61714 (gentamicin-resistant); type: cell-based
Procedure, shortened: as §1

[10] = P. aeruginosa PAO1, degree of minocycline potentiation in the presence of 8 μg/mL (5 μM) lipopeptide
[11] = P. aeruginosa PAO1, degree of rifampicin potentiation in the presence of 8 μg/mL (5 μM) lipopeptide

SMILES | Absolute MIC MIN ([1]; P. aeruginosa PAO1, MIC of minocycline in the presence of 8 μg/mL (5 μM) lipopeptide) [µg/mL] | Absolute MIC RMP ([1]; P. aeruginosa PAO1, MIC of rifampicin in the presence of 8 μg/mL (5 μM) lipopeptide) [µg/mL] | MIC (agent alone) ([1]; P. aeruginosa PAO1, antibiotic or lipopeptide alone) [µg/mL] | Potentiation [1, 10] | Potentiation [1, 11] | interaction with minocycline (in words) [2] | interaction with rifampicin (in words) [2] | MIC (lipopeptide alone) [2] | MIC (agent alone) ([1]; PAO1) [µg/mL] | MIC [3] [µg/mL] | MIC [4] [µg/mL] | MIC [5] [µg/mL] | MIC [6] [µg/mL] | MIC [7] [µg/mL] | MIC [8] [µg/mL] | MIC [9] [µg/mL] | strains in which MIC of rifampicin reached susceptibility breakpoint ([2]; 8 μg/mL (5 μM) lipopeptide, breakpoint ≤1 μg/mL (CLSI, Staphylococcus spp.)) | strains in which MIC of minocycline was reduced below susceptibility breakpoint ([2]; 8 μg/mL (5 μM) lipopeptide, breakpoint ≤4 μg/mL (CLSI, Acinetobacter spp.))
CCCCCCCCCCCC(=O)N1CCC[C@@H]1C(=O)N[C@H](CCCNC(=N)N)C(=O)N1CCC[C@@H]1C(=O)N[C@H](CCCNC(=N)N)C(=O)N1CCC[C@@H]1C(=O)N[C@H](CCCNC(=N)N)C(=O)N1CCC[C@@H]1C(N)=O [C12-prp] (Lauroyl-[dP][dR][dP][dR][dP][dR][dP]-NH2) | 2 | 1 | >128 | 4-fold | 8-fold | potentiated | potentiated | > 128 µg/mL |  |  |  |  |  |  |  |  |  | 
CCCCCCCCCCCC(=O)N1CCC[C@H]1C(=O)N[C@@H](CCCNC(=N)N)C(=O)N1CCC[C@H]1C(=O)N[C@@H](CCCNC(=N)N)C(=O)N1CCC[C@H]1C(=O)N[C@@H](CCCNC(=N)N)C(=O)N1CCC[C@H]1C(N)=O [Compound C12-PRP, CH3(CH2)10CO-PRPRPRP-NH2] (Lauroyl-PRPRPRP-NH2) |  |  |  | 8-fold | 8-fold | strongly synergistic | significant potentiation | inactive | 128 | >128 | 128 | 128 | >128 | >128 | >128 | >128 | five out of nine | seven out of nine
